Here are results for 18 compounds from patent publication US11090304B2 (Amgen Inc., priority 2018, dated 2021).

Where two headings read alike, the source gives them in different places.

Assay [1] relates to Phosphorylation of ERK1/2 in MIA PaCa-2 cells. Description: Phospho-ERK1/2 MSD assay in MIA PaCa-2 cells. The class given is cell-based. The following applies: Homo sapiens. The method, boiled down:
(§1)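 In the procedure, cells were plated a day ahead at 25,000 per well. Next, a dilution series of compound in growth medium was added for 2 or 4 h. EGF (10 ng/mL) stimulation for 10 min preceded washing and RIPA lysis. Lysate phospho-ERK1/2 was read by MSD, with IC50 derived by 4-parameter logistic analysis.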

Assay [2] addresses GDP-bound KRAS protein (aa 1-169), containing both G12C and C118A amino acid substitutions (Homo sapiens, UniProt P01116, C118A/G12C). As to the kind of experiment: Coupled nucleotide exchange assay (SOS-mediated, AlphaScreen). The following applies: for Coupled exchange IC50 (2 h): 2 h compound pre-incubation. It is filed as biochemical. On the technique in general: In Alpha technology, singlet oxygen from a donor bead excites a nearby acceptor bead.

Assay [3] concerns Phosphorylation of ERK1/2 in A549 cells. As to the kind of experiment: Phospho-ERK1/2 MSD assay in A549 cells. The class given is cell-based. The following applies: Homo sapiens. The method, boiled down: as §1
The mark [4] stands for this setting: MIA PaCa-2, 4 h, read-out: p-ERK IC50 (4 h; MIA PaCa-2), 4 h compound treatment.
Setting [5] is: A549, 4 h, read-out: p-ERK IC50 (4 h; A549), 4 h compound treatment.
Setting [6] is: MIA PaCa-2, 2 h, read-out: p-ERK IC50 (2 h; MIA PaCa-2), 2 h compound treatment.
The mark [7] stands for this setting: A549, 2 h, read-out: p-ERK IC50 (2 h; A549), 2 h compound treatment.

Chain of GDP-bound KRAS protein (aa 1-169), containing both G12C and C118A amino acid substitutions (P01116 1-169 isoform P01116-2 G12C/C118A): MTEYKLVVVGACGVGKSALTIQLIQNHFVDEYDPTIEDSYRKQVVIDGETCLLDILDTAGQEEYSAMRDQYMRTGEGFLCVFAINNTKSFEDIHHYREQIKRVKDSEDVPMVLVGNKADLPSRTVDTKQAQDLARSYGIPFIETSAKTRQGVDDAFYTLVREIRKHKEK

For `C=CC(=O)N1CCN(c2nc(=O)n(-c3c(CC)cccc3CC)c3nc(Cl)c(Cl)cc23)[C@@H](C)C1` [Example 54-61, 6,7-dichloro-1-(2,6-diethylphenyl)-4-((2S)-2-methyl-4-(2-propenoyl)-1-piperazinyl) pyrido[2,3-d]pyrimidin-2(1H)-one], the 50% inhibitory concentration (IC50) in assay [1] (setting [4]) was 1370 nM; in assay [3] (setting [5]), ≥ 11100 nM. Moreover, the “Coupled exchange IC50 (2 h)” value in assay [2] was “nda | 0.379 μM”.
As to `C=CC(=O)N1CCN(c2nc(=O)n(-c3c(CC)cccc3CC)c3nc(-c4ccccc4)c(Cl)cc23)[C@@H](C)C1` [Example 54-62, 6-chloro-1-(2,6-diethylphenyl)-4-((2S)-2-methyl-4-(2-propenoyl)-1-piperazinyl)-7-phenyl-pyrido[2,3-d]pyrimidin-2(1H)-one], the IC50 in assay [1] (setting [6]) is 407 nM; in assay [1] (setting [4]), 223 nM; in assay [3] (setting [7]) it was ≥ 10000 nM; in assay [3] (setting [5]), ≥ 100000 nM. Moreover, the “Coupled exchange IC50 (5 min)” value in assay [2] (5 min compound pre-incubation) was 0.808 µM. For the same compound, the “Coupled exchange IC50 (2 h)” value in assay [2] amounted to 172 nM.
Regarding `C=CC(=O)N1CCN(c2nc(=O)n(-c3c(CC)cccc3CC)c3nc(-c4ccccc4O)c(Cl)cc23)[C@@H](C)C1` [Example 54-63, 6-chloro-1-(2,6-diethylphenyl)-7-(2-hydroxyphenyl)-4-((2S)-2-methyl-4-(2-propenoyl)-1-piperazinyl) pyrido[2,3-d]pyrimidin-2(1H)-one], the values for the IC50 in assay [1] (setting [6]), in assay [1] (setting [4]) and in assay [3] (setting [5]) were 291 nM, 136 nM and ≥ 33300 nM, respectively. For the same compound, in assay [2] (5 min compound pre-incubation), the “Coupled exchange IC50 (5 min)” value stood at 0.845 µM. Also, the “Coupled exchange IC50 (2 h)” value in assay [2] worked out at 164 nM.
In the case of `C=CC(=O)N1CCN(c2nc(=O)n(-c3c(CC)cccc3CC)c3nc(-c4c(F)cccc4F)c(Cl)cc23)[C@@H](C)C1` [Example 54-65, 6-chloro-1-(2,6-diethylphenyl)-7-(2,6-difluorophenyl)-4-((2S)-2-methyl-4-(2-propenoyl)-1-piperazinyl) pyrido[2,3-d]pyrimidin-2(1H)-one], the half-maximal inhibitory concentration (IC50) is 140 nM in assay [1] (setting [6]), 133 nM in assay [1] (setting [4]), ≥ 10000 nM in assay [3] (setting [7]) and ≥ 100000 nM in assay [3] (setting [5]). Also, the “Coupled exchange IC50 (5 min)” value in assay [2] (5 min compound pre-incubation) is 0.253 µM. The “Coupled exchange IC50 (2 h)” value in assay [2] was found to be 54 nM.
Consider `C=CC(=O)N1CCN(c2nc(=O)n(-c3c(C)cccc3C)c3nc(-c4c(O)cccc4F)c(Cl)cc23)[C@@H](C)C1` [Example 54-69, 6-chloro-1-(2,6-dimethylphenyl)-7-(2-fluoro-6-hydroxyphenyl)-4-((2S)-2-methyl-4-(2-propenoyl)-1-piperazinyl) pyrido[2,3-d]pyrimidin-2(1H)-one], for which the IC50 in assay [1] (setting [6]) is 199 nM; in assay [2] (read-out: Coupled exchange IC50 (5 min), 5 min compound pre-incubation), 306 nM; in assay [3] (setting [7]) it was ≥ 10000 nM.
With `C=CC(=O)N1CCN(c2nc(=O)n(-c3ccccc3C(C)C)c3nc(-c4cc(O)ccc4Br)c(Cl)cc23)[C@@H](C)C1` [Example 54-87, 7-(2-bromo-5-hydroxyphenyl)-6-chloro-4-((2S)-2-methyl-4-(2-propenoyl)-1-piperazinyl)-1-(2-(2-propanyl)phenyl)pyrido [2,3-d]pyrimidin-2(1H)-one], the IC50 was 66 nM in assay [1] (setting [6]) and ≥ 10000 nM in assay [3] (setting [7]). The “Coupled exchange IC50 (5 min)” value in assay [2] (5 min compound pre-incubation) is 0.109 | nda μM.
In the case of `C=CC(=O)N1CCN(c2nc(=O)n(-c3ccccc3C(C)C)c3nc(-c4cc(O)ccc4F)c(Cl)cc23)[C@@H](C)C1` [Example 54-88, 6-chloro-7-(2-fluoro-5-hydroxyphenyl)-4-((2S)-2-methyl-4-(2-propenoyl)-1-piperazinyl)-1-(2-(2-propanyl)phenyl)pyrido [2,3-d]pyrimidin-2(1H)-one], the IC50 in assay [1] (setting [6]) is 101 nM; in assay [3] (setting [7]), ≥ 10000 nM. In addition, in assay [2] (5 min compound pre-incubation), the “Coupled exchange IC50 (5 min)” value is 0.139 | nda μM.
On the same counts, the results for `C=CC(=O)N1CCN(c2nc(=O)n(-c3c(CC)cccc3CC)c3nc(-c4ccccc4F)c(Cl)cc23)[C@@H](C(=O)OC)C1` [Example 55-30, methyl (2R)-1-(6-chloro-1-(2,6-diethylphenyl)-7-(2-fluorophenyl)-2-oxo-1,2-dihydropyrido[2,3-d]pyrimidin-4-yl)-4-(2-propenoyl)-2-piperazinecarboxylate] are 1610 nM, ≥ 10000 nM and 1.95 | nda μM.
In the case of `C=CC(=O)N1CCN(c2nc(=O)n(-c3ccccc3C(C)C)c3nc(-c4ccccc4F)c(F)cc23)[C@@H](C)C1` [Example 57-7, 6-fluoro-7-(2-fluorophenyl)-4-((2S)-2-methyl-4-(2-propenoyl)-1-piperazinyl)-1-(2-(2-propanyl)phenyl)pyrido[2,3-d]pyrimidin-2(1H)-one], the IC50 is 450 nM in assay [1] (setting [6]) and ≥ 10000 nM in assay [3] (setting [7]). In assay [2] (5 min compound pre-incubation), the “Coupled exchange IC50 (5 min)” value is recorded as 0.991 | nda μM.
As to `C=CC(=O)N1CCN(c2nc(=O)n(CC3(C(F)(F)F)CC3)c3nc(-c4c(O)cccc4F)c(Cl)cc23)CC1` [Example 60-3, 6-chloro-7-(2-fluoro-6-hydroxyphenyl)-4-(4-(2-propenoyl)-1-piperazinyl)-1-((1-(trifluoromethyl)cyclopropyl)methyl)pyrido[2,3-d]pyrimidin-2(1H)-one], the IC50 in assay [1] (setting [6]) was 657 nM; in assay [1] (setting [4]), 552 nM; in assay [3] (setting [7]), ≥ 100000 nM; in assay [3] (setting [5]), 65000 nM. In assay [2] (5 min compound pre-incubation), the “Coupled exchange IC50 (5 min)” value was 1.02 µM. The “Coupled exchange IC50 (2 h)” value in assay [2] stood at 101 nM.
On to `C=CC(=O)N1CCN(c2nc(=O)n(CC(C)(C)C)c3nc(-c4c(O)cccc4F)c(Cl)cc23)CC1` [Example 60-5, 6-chloro-1-(2,2-dimethylpropyl)-7-(2-fluoro-6-hydroxyphenyl)-4-(4-(2-propenoyl)-1-piperazinyl)pyrido[2,3-d]pyrimidin-2(1H)-one], for which the IC50 was 492 nM in assay [1] (setting [6]), 447 nM in assay [1] (setting [4]), 52400 nM in assay [3] (setting [7]) and 60500 nM in assay [3] (setting [5]). In addition, the “Coupled exchange IC50 (5 min)” value in assay [2] (5 min compound pre-incubation) was determined as 0.589 µM. Moreover, the “Coupled exchange IC50 (2 h)” value in assay [2] came out at 102 nM.
Consider `C=CC(=O)N1CCN(c2nc(=O)n(CC(C)(C)C)c3nc(-c4ccccc4F)c(Cl)cc23)CC1` [Example 60-6], for which the IC50 in assay [1] (setting [4]) was 1040 nM; in assay [3] (setting [5]), 67700 nM. In addition, in assay [2] (5 min compound pre-incubation), the “Coupled exchange IC50 (5 min)” value came to 1.85 µM. For the same compound, in assay [2], the “Coupled exchange IC50 (2 h)” value was 161 nM.
As for `C=CC(=O)N1CCN(c2nc(=O)n(-c3nccnc3C3CC3)c3nc(-c4c(O)cccc4F)c(Cl)cc23)[C@@H](C)C1` [Example 60-8, 6-chloro-1-(3-cyclopropyl-2-pyrazinyl)-7-(2-fluoro-6-hydroxyphenyl)-4-((2S)-2-methyl-4-(2-propenoyl)-1-piperazinyl)pyrido[2,3-d]pyrimidin-2(1H)-one], the IC50 in assay [1] (setting [6]) was 72 nM; in assay [3] (setting [7]), ≥ 10000 nM. In addition, in assay [2] (5 min compound pre-incubation), the “Coupled exchange IC50 (5 min)” value is reported as 0.173 | nda μM.
On the same counts, the results for `C=CC(=O)N1CCN(c2nc(=O)n(-c3c(C4CC4)ncnc3C3CC3)c3nc(-c4ccccc4F)c(Cl)cc23)[C@@H](C)C1` [Example 60-11, 6-chloro-1-(4,6-dicyclopropyl-5-pyrimidinyl)-7-(2-fluorophenyl)-4-((2S)-2-methyl-4-(2-propenoyl)-1-piperazinyl)pyrido[2,3-d]pyrimidin-2(1H)-one] are 63 nM, ≥ 10000 nM and 0.08 | nda μM.
The matching figures for `C=CC(=O)N1CCN(c2nc(=O)n(-c3ccccc3C)c3nc(-c4ccccc4F)c(Cl)cc23)[C@@H](C)C1` [Example 60-14, 6-chloro-7-(2-fluorophenyl)-1-(2-methylphenyl)-4-((2S)-2-methyl-4-(2-propenoyl)-1-piperazinyl)pyrido[2,3-d]pyrimidin-2(1H)-one]: 946 nM, ≥ 10000 nM and 2.24 | nda μM.
For `C=CC(=O)N1CCN(c2nc(=O)n(-c3ccccc3C)c3nc(-c4c(O)cccc4F)c(Cl)cc23)[C@@H](C)C1` [Example 60-15, 6-chloro-7-(2-fluoro-6-hydroxyphenyl)-1-(2-methylphenyl)-4-((2S)-2-methyl-4-(2-propenoyl)-1-piperazinyl)pyrido[2,3-d]pyrimidin-2(1H)-one], the IC50 in assay [1] (setting [6]) is 492 nM; in assay [3] (setting [7]), ≥ 10000 nM. Moreover, the “Coupled exchange IC50 (5 min)” value in assay [2] (5 min compound pre-incubation) is 0.686 | nda μM.
In the case of `C=CC(=O)N1CCN(c2nc(=O)n(-c3ccccc3C(C)C)c3nc(-c4cc(OC)ccc4Br)c(Cl)cc23)[C@@H](C)C1` [Example 60-26, 7-(2-bromo-5-methoxyphenyl)-6-chloro-4-((2S)-2-methyl-4-(2-propenoyl)-1-piperazinyl)-1-(2-(2-propanyl)phenyl)pyrido[2,3-d]pyrimidin-2(1H)-one], the results for the IC50 in assay [1] (setting [6]) and in assay [3] (setting [7]) were 387 nM and ≥ 10000 nM, respectively. For the same compound, in assay [2] (5 min compound pre-incubation), the “Coupled exchange IC50 (5 min)” value is 0.809 | nda μM.
Regarding `C=CC(=O)N1CCN(c2nc(=O)n(C(C(C)C)C(C)C)c3nc(-c4ccccc4F)c(Cl)cc23)CC1` [Example 60-31, 6-chloro-1-(2,4-dimethyl-3-pentanyl)-7-(2-fluorophenyl)-4-(4-(2-propenoyl)-1-piperazinyl)pyrido[2,3-d]pyrimidin-2(1H)-one], the IC50 in assay [1] (setting [6]) stood at 1000 nM; in assay [1] (setting [4]) it was 710 nM; in assay [3] (setting [7]) it was 40900 nM; in assay [3] (setting [5]), 86600 nM. Moreover, the “Coupled exchange IC50 (5 min)” value in assay [2] (5 min compound pre-incubation) came out at 0.919 µM. The “Coupled exchange IC50 (2 h)” value in assay [2] was found to be 115 nM.

The IC50 is the concentration at which inhibition is half-maximal.
